Source: patent US6737383B1, “Herbicidal oxadiazolidines” (priority 1999, dated 2004)

Experiments:
rape = assay: Test B pre/postemergence rape; type: in vivo, Brassica napus
Summary of the method: (§1)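 Response is a visual 0-to-10 score relative to untreated plants, where 0 means no effect and 10 means complete control, taken twelve to sixteen days after application. Treatments went onto soil at planting and onto foliage of 1- to 4-leaf plants, using a surfactant-containing non-phytotoxic solvent.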

crabgrass = assay: Test B pre/postemergence crabgrass; type: in vivo, Digitaria sanguinalis
Summary of the method: as §1

bedstraw = assay: Test B pre/postemergence bedstraw; type: in vivo, Galium aparine
Summary of the method: as §1

soybean = assay: Test B pre/postemergence soybean; type: in vivo, Glycine max
Summary of the method: as §1

wheat = assay: Test B pre/postemergence wheat; type: in vivo, Triticum aestivum
Summary of the method: as §1

smallflower flatsedge = assay: Test B flood test smallflower flatsedge; type: in vivo, Cyperus difformis
Summary of the method: (§2)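 Flood test on plants grown to the 2-leaf stage; treated plants kept in greenhouse twelve to sixteen days, then visually rated against controls on a 0 (no effect) to 10 (complete control) scale.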

wild oat = assay: Test B pre/postemergence wild oat; type: in vivo, Avena fatua
Summary of the method: as §1

bamyardgrass = assay: Test B flood test barnyardgrass; type: in vivo, Echinochloa crus-galli
Summary of the method: as §2

sugar beet = assay: Test B pre/postemergence sugar beet; type: in vivo, Beta vulgaris
Summary of the method: as §1

purple nutsedge = assay: Test B pre/postemergence purple nutsedge; type: in vivo, Cyperus rotundus; details: Preemergence
Summary of the method: as §1

surinam grass = assay: Test B pre/postemergence surinam grass; type: in vivo, Brachiaria decumbens
Summary of the method: as §1

velvetleaf = assay: Test B pre/postemergence velvetleaf; type: in vivo, Abutilon theophrasti
Summary of the method: as §1

cocklebur = assay: Test B pre/postemergence cocklebur; type: in vivo, Xanthium strumarium
Summary of the method: as §1

corn = assay: Test B pre/postemergence corn; type: in vivo, Zea mays
Summary of the method: as §1

pigweed = assay: Test B pre/postemergence pigweed; type: in vivo, Amaranthus retroflexus
Summary of the method: as §1

blackgrass = assay: Test B pre/postemergence blackgrass; type: in vivo, Alopecurus myosuroides
Summary of the method: as §1

[1] = Postemergence, Rate 250 g/ha, scale 0 to 10, 0 no effect, 10 complete control
[2] = Postemergence, Rate 1000 g/ha, scale 0 to 10 (0 no effect, 10 complete control)
[3] = Preemergence, Rate 125 g/ha, scale 0 to 10 (0 no effect, 10 complete control)
[4] = Preemergence, Rate 250 g/ha, scale of 0 to 10 where 0 is no effect and 10 is complete control
[5] = Preemergence, Rate 500 g/ha, scale 0 (no effect) to 10 (complete control)
[6] = Rate 125 g/ha, Postemergence, scale 0 to 10, 0 no effect, 10 complete control
[7] = Rate 500 g/ha, Postemergence, 0 to 10 scale (0 no effect, 10 complete control)
[8] = Rate 1000 g/ha, Preemergence, scale 0 to 10 (0 no effect, 10 complete control)
[9] = Rate 125 g/ha, Postemergence section (flood test species), scale 0 to 10, 0 no effect, 10 complete control
[10] = flood test, listed under Postemergence, Rate 250 g/ha, scale 0 to 10, 0 no effect, 10 complete control

COc1ccc(-n2c(=O)on(C(=O)N(C3=CCOCC3)C(C)C)c2=O)cc1 [Compound 6]
3: Bedstraw plant response rating (bedstraw; [2]) | Soybean plant response rating (soybean; [1]) | Soybean plant response rating (soybean; [6]) | Plant response rating, Wheat (wheat; [8]) | S. Flatsedge plant response rating (smallflower flatsedge; [2]) | Wild oats plant response rating (wild oat; [5]) | Sugarbeets plant response rating (sugar beet; [2])
9: Crabgrass plant response rating (crabgrass; [5])
7: Crabgrass plant response rating (crabgrass; [2]) | Plant response rating, Crabgrass (crabgrass; [3]) | B. signalgrass plant response rating (surinam grass; [2]) | Redroot pigweed plant response rating (pigweed; [5]) | Plant response rating, Redroot pigweed (pigweed; [8]) | Blackgrass plant response rating (blackgrass; [1]) | Blackgrass plant response rating (blackgrass; [2]) | Blackgrass plant response rating (blackgrass; [7]) | Plant response rating, Blackgrass (blackgrass; [8])
2: Rape plant response rating (rape; [2]) | Crabgrass plant response rating (crabgrass; [1]) | B. signalgrass plant response rating (surinam grass; [1]) | Plant response rating, Velvetleaf (velvetleaf; [4]) | Velvetleaf plant response rating (velvetleaf; [5]) | Plant response rating, Cocklebur (cocklebur; [8]) | Corn plant response rating (corn; [5]) | Blackgrass plant response rating (blackgrass; [5])
6: Soybean plant response rating (soybean; [2]) | Plant response rating, Wild oats (wild oat; [8])
4: Wild oats plant response rating (wild oat; [2]) | Plant response rating, Velvetleaf (velvetleaf; [8]) | Corn plant response rating (corn; [2]) | Redroot pigweed plant response rating (pigweed; [2]) | Blackgrass plant response rating (blackgrass; [6])
1: Velvetleaf plant response rating (velvetleaf; [2]) | Plant response rating, Corn (corn; [4])
0: Rape plant response rating (rape; [1]) | Plant response rating, Rape (rape; [3]) | Plant response rating, Rape (rape; [4]) | Rape plant response rating (rape; [5]) | Rape plant response rating (rape; [6]) | Rape plant response rating (rape; [7]) | Plant response rating, Rape (rape; [8]) | Crabgrass plant response rating (crabgrass; [6]) | Bedstraw plant response rating (bedstraw; [1]) | Plant response rating, Bedstraw (bedstraw; [3]) | Plant response rating, Bedstraw (bedstraw; [4]) | Bedstraw plant response rating (bedstraw; [5]) | Bedstraw plant response rating (bedstraw; [6]) | Bedstraw plant response rating (bedstraw; [7]) | Plant response rating, Bedstraw (bedstraw; [8]) | Plant response rating, Soybean (soybean; [3]) | Plant response rating, Soybean (soybean; [4]) | Soybean plant response rating (soybean; [5]) | Plant response rating, Soybean (soybean; [8]) | Wheat plant response rating (wheat; [1]) | Wheat plant response rating (wheat; [2]) | Plant response rating, Wheat (wheat; [3]) | Plant response rating, Wheat (wheat; [4]) | Wheat plant response rating (wheat; [5]) | Wheat plant response rating (wheat; [6]) | S. Flatsedge plant response rating (smallflower flatsedge; [9]) | S. Flatsedge plant response rating (smallflower flatsedge; [10]) | Wild oats plant response rating (wild oat; [1]) | Plant response rating, Wild oats (wild oat; [3]) | Plant response rating, Wild oats (wild oat; [4]) | Wild oats plant response rating (wild oat; [6]) | Barnyardgrass plant response rating (bamyardgrass; [9]) | Barnyardgrass plant response rating (bamyardgrass; Rate 500 g/ha, Postemergence section of Table B, 0 to 10 scale (0 no effect, 10 complete control)) | Barnyardgrass plant response rating (bamyardgrass; [10]) | Sugarbeets plant response rating (sugar beet; [1]) | Plant response rating, Sugarbeets (sugar beet; [3]) | Plant response rating, Sugarbeets (sugar beet; [4]) | Sugarbeets plant response rating (sugar beet; [5]) | Sugarbeets plant response rating (sugar beet; [6]) | Plant response rating, Sugarbeets (sugar beet; [8]) | Plant response rating, Nutsedge (purple nutsedge; Rate 125 g/ha, scale 0 to 10 (0 no effect, 10 complete control)) | Plant response rating, Nutsedge (purple nutsedge; Rate 250 g/ha, scale of 0 to 10 where 0 is no effect and 10 is complete control) | Nutsedge plant response rating (purple nutsedge; Rate 500 g/ha, scale 0 (no effect) to 10 (complete control)) | Plant response rating, Nutsedge (purple nutsedge; Rate 1000 g/ha, scale 0 to 10 (0 no effect, 10 complete control)) | Plant response rating, B. signalgrass (surinam grass; [3]) | Plant response rating, B. signalgrass (surinam grass; [4]) | B. signalgrass plant response rating (surinam grass; [5]) | B. signalgrass plant response rating (surinam grass; [6]) | Velvetleaf plant response rating (velvetleaf; [1]) | Plant response rating, Velvetleaf (velvetleaf; [3]) | Velvetleaf plant response rating (velvetleaf; [6]) | Cocklebur plant response rating (cocklebur; [1]) | Cocklebur plant response rating (cocklebur; [2]) | Plant response rating, Cocklebur (cocklebur; [3]) | Plant response rating, Cocklebur (cocklebur; [4]) | Cocklebur plant response rating (cocklebur; [5]) | Cocklebur plant response rating (cocklebur; [6]) | Cocklebur plant response rating (cocklebur; [7]) | Corn plant response rating (corn; [1]) | Plant response rating, Corn (corn; [3]) | Corn plant response rating (corn; [6]) | Corn plant response rating (corn; [7]) | Redroot pigweed plant response rating (pigweed; [1]) | Redroot pigweed plant response rating (pigweed; [6]) | Redroot pigweed plant response rating (pigweed; [7]) | Plant response rating, Blackgrass (blackgrass; [3]) | Plant response rating, Blackgrass (blackgrass; [4])
10: Plant response rating, Crabgrass (crabgrass; [8])
8: Barnyardgrass plant response rating (bamyardgrass; [2])
5: Crabgrass plant response rating (crabgrass; [7]) | B. signalgrass plant response rating (surinam grass; [7]) | Plant response rating, B. signalgrass (surinam grass; [8]) | Plant response rating, Corn (corn; [8]) | Plant response rating, Redroot pigweed (pigweed; [3]) | Plant response rating, Redroot pigweed (pigweed; [4])
